# Data: PMC3691639, “Aldose reductase from Schistosoma japonicum: crystallization and structure-based inhibitor screening for discovering antischistosomal lead compounds” (Parasites & Vectors, 2013)
# Target: T1, recombinant Schistosoma japonicum aldose reductase (rSjAR; SjAR) (Schistosoma japonicum, UniProt Q5DD64)
# T1 construct: gene Akr1b4; SjAR-pET28a plasmid, expressed in E. coli BL21(DE3)
# T1 sequence (Q5DD64 1-310): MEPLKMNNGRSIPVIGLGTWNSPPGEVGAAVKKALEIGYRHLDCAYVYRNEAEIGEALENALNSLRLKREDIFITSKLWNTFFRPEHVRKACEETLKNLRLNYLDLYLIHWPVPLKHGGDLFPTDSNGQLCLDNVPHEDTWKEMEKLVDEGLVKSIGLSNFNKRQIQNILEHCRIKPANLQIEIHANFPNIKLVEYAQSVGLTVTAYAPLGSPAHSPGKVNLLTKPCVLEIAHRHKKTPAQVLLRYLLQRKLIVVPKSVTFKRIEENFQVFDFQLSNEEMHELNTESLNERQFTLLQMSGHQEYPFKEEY
# Assay: NADPH depletion at […] nm, microplate
# Format: biochemical
structure (smiles),measurement,value
O=C1c2ccccc2C(=C2c3ccccc3C(=O)c3ccccc32)c2ccccc21 [AR9],IC50,30.6 µM
